Measurements reported in ChEMBL document CHEMBL4177616, “Potent anti-melanogenic activity and favorable toxicity profile of selected 4-phenyl hydroxycoumarins in the zebrafish model and the computational molecular modeling studies” (Bioorg Med Chem, 2017).
Active and inactive are the calls of the source. No cut-off for these calls is given here.

Assays:
[1] = species: Danio rerio; experiment: Toxicity in wild type zebrafish embryos assessed as head malformation at 20 ug/ml treated for 96 hrs post fertilization starting from 6 hrs post fertilization by inverted microscopic analysis relative to control; type: organism-based; conditions: in vivo
[2] = tested on: Danio rerio; experiment: Toxicity in wild type zebrafish embryos assessed as pericardial edema at 15 ug/ml treated for 96 hrs post fertilization starting from 6 hrs post fertilization by inverted microscopic analysis relative to control; type: organism-based; conditions: in vivo
[3] = species: Danio rerio; experiment: Toxicity in wild type zebrafish embryos assessed as heart beat at 15 ug/ml treated for 96 hrs post fertilization starting from 6 hrs post fertilization by inverted microscopic analysis relative to control; type: organism-based; conditions: in vivo
[4] = molecular target: T1, Tyrosinase (Danio rerio) (UniProt A0A8M1PAD4); experiment: Inhibition of zebrafish embryo tyrosinase assessed as residual activity at 5 ug/ml after 48 hrs relative to control
T1 sequence (whole entry): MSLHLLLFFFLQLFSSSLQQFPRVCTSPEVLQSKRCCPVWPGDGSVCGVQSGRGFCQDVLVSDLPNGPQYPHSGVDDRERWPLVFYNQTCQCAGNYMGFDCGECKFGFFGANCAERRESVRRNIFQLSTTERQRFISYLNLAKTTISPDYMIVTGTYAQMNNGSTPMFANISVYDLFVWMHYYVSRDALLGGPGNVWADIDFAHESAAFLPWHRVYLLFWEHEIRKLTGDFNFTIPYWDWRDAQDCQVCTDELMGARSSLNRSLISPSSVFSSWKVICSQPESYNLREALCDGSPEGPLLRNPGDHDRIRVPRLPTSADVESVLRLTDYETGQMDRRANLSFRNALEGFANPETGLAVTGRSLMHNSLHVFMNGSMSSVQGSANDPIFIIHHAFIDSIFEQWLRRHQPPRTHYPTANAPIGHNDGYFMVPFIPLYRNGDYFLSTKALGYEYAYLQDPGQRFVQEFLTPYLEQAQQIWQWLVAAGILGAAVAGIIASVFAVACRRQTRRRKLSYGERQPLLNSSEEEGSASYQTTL

[5] = species: Danio rerio; experiment: Toxicity in wild type zebrafish embryos assessed as unhatched embryo at 15 ug/ml treated for 96 hrs post fertilization starting from 6 hrs post fertilization by inverted microscopic analysis relative to control; type: organism-based; conditions: in vivo
[6] = molecular target: T2, Tyrosinase (Danio rerio, UniProt A0A8M1PAD4); experiment: Inhibition of zebrafish embryo tyrosinase assessed as residual activity after 48 hrs
T2 sequence (A0A8M1PAD4 whole entry): T1 sequence (whole entry)

[7] = species: Danio rerio; experiment: Toxicity in wild type zebrafish embryos assessed as otoliths at 15 ug/ml treated for 96 hrs post fertilization starting from 6 hrs post fertilization by inverted microscopic analysis relative to control; type: organism-based; conditions: in vivo
[8] = tested on: Danio rerio; experiment: Toxicity in wild type zebrafish embryos assessed as yolk edema at 50 ug/ml treated for 96 hrs post fertilization starting from 6 hrs post fertilization by inverted microscopic analysis relative to control; type: organism-based; conditions: in vivo
[9] = species: Danio rerio; experiment: Toxicity in wild type zebrafish embryos assessed as head malformation at 15 ug/ml treated for 96 hrs post fertilization starting from 6 hrs post fertilization by inverted microscopic analysis relative to control; type: organism-based; conditions: in vivo
[10] = in vivo; conditions: zebrafish
Description: Toxicity in wild type zebrafish embryos assessed as dead embryo at 6.25 ug/ml treated for 96 hrs post fertilization starting from 6 hrs post fertilization by inverted microscopic analysis relative to control

[11] = tested on: Neutrophil; experiment: Anti-melanogenic activity in mpx:GFP transgenic zebrafish 24 hrs post fertilization embryo neutrophils assessed as decrease in pigmentation at 2 to 2.5 mg/ml; type: functional, cell-based; conditions: Danio rerio
[12] = species: Danio rerio; experiment: Toxicity in wild type zebrafish embryos assessed as normal embryo at 2000 ug/ml treated for 96 hrs post fertilization starting from 6 hrs post fertilization by inverted microscopic analysis relative to control; type: organism-based; conditions: in vivo
[13] = tested on: Danio rerio; experiment: Toxicity in wild type zebrafish embryos assessed as yolk edema at 100 ug/ml treated for 96 hrs post fertilization starting from 6 hrs post fertilization by inverted microscopic analysis relative to control; type: organism-based; conditions: in vivo
[14] = species: Danio rerio; experiment: Toxicity in wild type zebrafish embryos assessed as notochord at 1000 ug/ml treated for 96 hrs post fertilization starting from 6 hrs post fertilization by inverted microscopic analysis relative to control; type: organism-based; conditions: in vivo
[15] = species: Danio rerio; experiment: Toxicity in wild type zebrafish embryos assessed as teratogenic embryo at 100 ug/ml treated for 96 hrs post fertilization starting from 6 hrs post fertilization by inverted microscopic analysis relative to control; type: organism-based; conditions: in vivo
[16] = species: Danio rerio; experiment: Toxicity in wild type zebrafish embryos assessed as blood circulation at 1000 ug/ml treated for 96 hrs post fertilization starting from 6 hrs post fertilization by inverted microscopic analysis relative to control; type: organism-based; conditions: in vivo
[17] = species: Danio rerio; experiment: Toxicity in wild type zebrafish embryos assessed as blood circulation at 2000 ug/ml treated for 96 hrs post fertilization starting from 6 hrs post fertilization by inverted microscopic analysis relative to control; type: organism-based; conditions: in vivo
[18] = species: Danio rerio; experiment: Toxicity in wild type zebrafish embryos assessed as otoliths at 2500 ug/ml treated for 96 hrs post fertilization starting from 6 hrs post fertilization by inverted microscopic analysis relative to control; type: organism-based; conditions: in vivo
[19] = species: Danio rerio; experiment: Toxicity in wild type zebrafish embryos assessed as normal embryo at 1000 ug/ml treated for 96 hrs post fertilization starting from 6 hrs post fertilization by inverted microscopic analysis relative to control; type: organism-based; conditions: in vivo
[20] = species: Danio rerio; experiment: Toxicity in wild type zebrafish embryos assessed as unhatched embryo at 1000 ug/ml treated for 96 hrs post fertilization starting from 6 hrs post fertilization by inverted microscopic analysis relative to control; type: organism-based; conditions: in vivo
[21] = species: Danio rerio; experiment: Toxicity in wild type zebrafish embryos assessed as otoliths at 2000 ug/ml treated for 96 hrs post fertilization starting from 6 hrs post fertilization by inverted microscopic analysis relative to control; type: organism-based; conditions: in vivo
[22] = species: Danio rerio; experiment: Toxicity in wild type zebrafish embryos assessed as otoliths at 1000 ug/ml treated for 96 hrs post fertilization starting from 6 hrs post fertilization by inverted microscopic analysis relative to control; type: organism-based; conditions: in vivo
[23] = species: Danio rerio; experiment: Toxicity in wild type zebrafish embryos assessed as unhatched embryo at 100 ug/ml treated for 96 hrs post fertilization starting from 6 hrs post fertilization by inverted microscopic analysis relative to control; type: organism-based; conditions: in vivo
[24] = species: Danio rerio; experiment: Toxicity in wild type zebrafish embryos assessed as notochord at 500 ug/ml treated for 96 hrs post fertilization starting from 6 hrs post fertilization by inverted microscopic analysis relative to control; type: organism-based; conditions: in vivo
[25] = tested on: Danio rerio; experiment: Toxicity in wild type zebrafish embryos assessed as yolk edema at 500 ug/ml treated for 96 hrs post fertilization starting from 6 hrs post fertilization by inverted microscopic analysis relative to control; type: organism-based; conditions: in vivo
[26] = tested on: Danio rerio; experiment: Toxicity in wild type zebrafish embryos assessed as pericardial edema at 500 ug/ml treated for 96 hrs post fertilization starting from 6 hrs post fertilization by inverted microscopic analysis relative to control; type: organism-based; conditions: in vivo
[27] = species: Danio rerio; experiment: Toxicity in wild type zebrafish embryos assessed as blood circulation at 2500 ug/ml treated for 96 hrs post fertilization starting from 6 hrs post fertilization by inverted microscopic analysis relative to control; type: organism-based; conditions: in vivo
[28] = species: Danio rerio; experiment: Toxicity in wild type zebrafish embryos assessed as notochord at 2000 ug/ml treated for 96 hrs post fertilization starting from 6 hrs post fertilization by inverted microscopic analysis relative to control; type: organism-based; conditions: in vivo
[29] = species: Danio rerio; experiment: Toxicity in wild type zebrafish embryos assessed as teratogenic embryo at 2500 ug/ml treated for 96 hrs post fertilization starting from 6 hrs post fertilization by inverted microscopic analysis relative to control; type: organism-based; conditions: in vivo
[30] = species: Danio rerio; experiment: Anti-melanogenic activity in wild type zebrafish 24 hrs post fertilization embryos assessed as decrease in body pigmentation at >= 500 ug/ml after 48 hrs; type: functional, organism-based
[31] = species: Danio rerio; experiment: Toxicity in wild type zebrafish embryos assessed as scoliosis at 2.5 ug/ml treated for 96 hrs post fertilization starting from 6 hrs post fertilization by inverted microscopic analysis relative to control; type: organism-based; conditions: in vivo
[32] = species: Danio rerio; experiment: Toxicity in wild type zebrafish embryos assessed as heart beat at 2000 ug/ml treated for 96 hrs post fertilization starting from 6 hrs post fertilization by inverted microscopic analysis relative to control; type: organism-based; conditions: in vivo

**Q.** For `O=c1cc(-c2ccccc2)c2ccc(O)cc2o1`, which Activity [1] is on record?
**A.** 0%

**Q.** And the Activity [2]?
**A.** 0%

**Q.** What about the Activity [3] of the same molecule?
**A.** 0%

**Q.** And the Activity [4]?
**A.** 99%

**Q.** And the Activity [5]?
**A.** 0%

**Q.** What about the IC50 [6] of the same molecule?
**A.** 205 µM

**Q.** And the Activity [7]?
**A.** 0%

**Q.** And the Activity [8]?
**A.** 0%

**Q.** What about the Activity [9] of the same molecule?
**A.** 0%

**Q.** For `Oc1ccc(O)cc1` [HYDROQUINONE], which mortality at 6.25 ug/ml [10] is on record?
**A.** 0%

**Q.** With `O=c1cc(-c2ccccc2)c2c(O)cc(O)cc2o1` as the molecule, how does the Activity [1] read?
**A.** 0%

**Q.** And the Activity [2]?
**A.** 0%

**Q.** And the Activity [3]?
**A.** 0%

**Q.** What about the Activity [4] of the same molecule?
**A.** 95%

**Q.** And the Activity [5]?
**A.** 0%

**Q.** And the IC50 [6]?
**A.** 90.9 µM

**Q.** What about the Activity [7] of the same molecule?
**A.** 0%

**Q.** And the Activity [8]?
**A.** 0%

**Q.** What about the Activity [9] of the same molecule?
**A.** 0%

**Q.** For `O=c1cc(CO)occ1O` [KOJIC ACID], which Activity [11] is on record?
**A.** Active

**Q.** And the Activity [12]?
**A.** 0%

**Q.** What about the Activity [13] of the same molecule?
**A.** 0%

**Q.** And the Activity [14]?
**A.** 0%

**Q.** And the Activity [15]?
**A.** 35%

**Q.** What about the Activity [16] of the same molecule?
**A.** 0%

**Q.** What about the Activity [17] of the same molecule?
**A.** 6.67%

**Q.** And the Activity [18]?
**A.** 86.67%

**Q.** What about the Activity [19] of the same molecule?
**A.** 1.67%

**Q.** And the Activity [20]?
**A.** 0%

**Q.** And the Activity [21]?
**A.** 31.67%

**Q.** And the Activity [22]?
**A.** 0%

**Q.** And the Activity [23]?
**A.** 0%

**Q.** What about the Activity [24] of the same molecule?
**A.** 0%

**Q.** And the Activity [25]?
**A.** 0%

**Q.** And the Activity [26]?
**A.** 86.67%

**Q.** And the Activity [27]?
**A.** 10%

**Q.** What about the Activity [28] of the same molecule?
**A.** 0%

**Q.** What about the Activity [29] of the same molecule?
**A.** 100%

**Q.** And the Activity [30]?
**A.** Active

**Q.** And the Activity [31]?
**A.** Toxic

**Q.** And the Activity [32]?
**A.** 96.67%
